*1 amine or outer side, *2 acyl side, *3 side chain or, on linkers, in order; H or OH if unused. Where no end group is shown, it is not given here. K(Palm) = CCCCCCCCCCCCCCCC(=O)NCCCC[C@H](N[*:1])C(=O)[*:2]
Legend:
SHR rats [1] = test: Systolic blood pressure in conscious SHR rats (tail-cuff) after i.p. intermedin peptides; type: in vivo, rat; settings: for duration of hypotensive effect in vivo: i.p.
Description: FIG. 1A-1C are examples of blood pressure measurements in SHR rats after treatment with a long-acting intermedin peptide (Palmitic acid-modified IMD, IMD-PA), A. 30 nmoles/kg BW; B/C, 100 nmoles/kg BW.
FIG. 2A-2B are examples of blood pressure measurements in SHR rates after injection with a wild type intermedin peptide (IMD, 100 nmoles/kg BW). The hypotensive effects of the IMD-PA peptide lasted over five hours in vivo, whereas that of the unmodified IMD peptide lasted less than 1 hr.
(§1) The intermedin peptides were dissolved in saline solution with 10-20% DMSO at 10 micromoles/liter, Before injection, aliquots of peptides were dissolved in PBS to a injection final volume of 100 ul. Blood pressure measurements were made in conscious SHR rats (9-16 weeks of age) pre-adapted to the measurement procedure. Indirect systolic pressure was determined by a programmable non-invasive blood pressure system using the tail-cuff method (Kent Scientific Corporation). Following attachment of the pressure transducer, rats were left undisturbed for 10 min before base-line measurements that spanned a 15-20 minute interval. Following base-line measurements, rats were injected intraperitoneally with varying doses of peptides, or saline with 10% DMSO. Blood pressure and heart rate were monitored for 20-40 min at 30-s intervals. Changes in blood pressure were calculated as the average of measurements performed within a given time interval.
The hypotensive effects of this peptide lasted over five hours in vivo, whereas that of the unmodified IMD peptide lasted less than 1 hr. The results from control animals injected with PBS is depicted in FIG. 3, and from the unmodified peptide in FIG. 2.

SHR rats [2] = settings: unmodified ADM peptide; stated as what it normally lasts, no figure; cited from earlier work
SHR rats [3] = test: Systolic blood pressure in conscious SHR rats (tail-cuff) after i.p. adrenomedullin peptides; type: in vivo, rat
Procedure: FIG. 5A-5C show examples of systolic pressure measurement of SHR rats after an injection of a long-acting adrenomedullin peptide (Palmitic acid-conjugated ADM, ADM-PA, 100 nmoles/kg BM. The hypotensive effect of this peptide lasted over five hours in vivo. By contrast, the hypotensive effect of unmodified ADM peptide normally lasts less than 1.5 hr.
as §1, with “Biological activity of adrenomedullin analog in vivo. The” for “The”, “adrenomedullin” for “intermedin”, “200 μl.” for “100 ul.”, “10-15” for “15-20”, “20-s” for “30-s”
(see Roh et al. Mol Endocrinol. 2005 November; 19(11):2824-38).

[4] = target: T1, adrenomedullin receptor 2 (CLR/RAMP3) (Homo sapiens, UniProt O60896+Q16602); test: Stimulatory effect in 293T cells expressing recombinant adrenomedullin receptor 2; type: cell-based; settings: 293T cells expressing CLR/RAMP3
T1 construct: expressed in transfected cells; host or cells: 293T cells
Description: (§2) Biological activity of adrenomedullin in vitro.

[5] = Immunoreactive ADM retained in vivo after i.p. injection, by ELISA
[6] = target: T2, adrenomedullin receptor 1 (CLR/RAMP2) (Homo sapiens, UniProt O60895+Q16602); test: Stimulatory effect in 293T cells expressing recombinant adrenomedullin receptor 1; type: cell-based; settings: 293T cells expressing CLR/RAMP2
T2 construct: expressed in transfected cells; host or cells: 293T cells
Description: as §2

T1 sequence (Q16602 23-461): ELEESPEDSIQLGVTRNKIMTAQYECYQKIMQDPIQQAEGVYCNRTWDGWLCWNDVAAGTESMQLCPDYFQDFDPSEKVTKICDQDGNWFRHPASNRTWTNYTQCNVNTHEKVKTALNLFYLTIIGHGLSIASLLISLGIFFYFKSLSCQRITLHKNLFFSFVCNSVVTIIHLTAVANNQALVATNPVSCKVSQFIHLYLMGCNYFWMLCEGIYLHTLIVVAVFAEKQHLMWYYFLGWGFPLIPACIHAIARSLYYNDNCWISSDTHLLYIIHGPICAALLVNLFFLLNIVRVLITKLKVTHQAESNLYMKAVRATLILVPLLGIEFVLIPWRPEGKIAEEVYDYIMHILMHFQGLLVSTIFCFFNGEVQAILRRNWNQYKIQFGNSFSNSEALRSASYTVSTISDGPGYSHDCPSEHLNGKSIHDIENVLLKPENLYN
T1 sequence (O60896 24-148): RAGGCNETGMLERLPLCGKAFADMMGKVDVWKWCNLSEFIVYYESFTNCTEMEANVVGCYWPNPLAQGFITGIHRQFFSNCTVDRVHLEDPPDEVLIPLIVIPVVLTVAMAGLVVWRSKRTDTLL
T2 sequence (Q16602 23-461): as the sequence (Q16602 23-461) above
T2 sequence (O60895 43-175): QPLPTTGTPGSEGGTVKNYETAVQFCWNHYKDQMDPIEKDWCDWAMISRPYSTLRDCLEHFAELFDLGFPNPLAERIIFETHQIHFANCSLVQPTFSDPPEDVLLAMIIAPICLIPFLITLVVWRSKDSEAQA

Substance: K(mod)GCVLGTCQVQNLSHRLWQLMGPAGRQDSAPVDPSSPHSY ({K(Palm)}-GCVLGTCQVQNLSHRLWQLMGPAGRQDSAPVDPSSPHSY; ends and bridges not checked) [IMD-PA, long-acting intermedin peptide, palmitic acid-modified via an incorporated Lys(PAL) residue]
- change in systolic blood pressure over time (SHR rats [1]; i.p. injection): significant and long lasting drop
- duration of hypotensive effect in vivo (SHR rats [1]; IMD-PA 30 or 100 nmoles/kg BW): over five

Substance: ADM: wild type, unmodified adrenomedullin peptide (YRQSMNNFQGLRSFGCRFGTCTVQKLAHQIYQFTDKDKDNVAPRSKISPQGY; ends and bridges not checked; cysteine pairing not given here)
- duration of hypotensive effect (normally) (SHR rats [2]): less than 1.5 hr

Substance: K(mod)GCRFGTCTVQKLAHQIYQFTDKDKDNVAPRSKISPQGY [ADM-PA]
- change in systolic blood pressure over time (SHR rats [3]; SHR rats, 100 nmoles/kg body weight): significant and long lasting drop
- duration of hypotensive effect in vivo (SHR rats [3]; SHR rats, ADM-PA 100 nmoles/kg): over five
- effective life in vivo compared with wild type ADM (SHR rats [3]; in vivo): significantly longer effective life
- stimulatory effect in vitro compared with wild type ADM [4]: lower than that of the wild type ADM
- level of immunoreactive peptide retained in vivo compared with ADM ([5]; 12 hr after i.p. injection): significantly higher
- half-life compared with ADM ([5]; measurement of immunoreactive ADM using ELISA): long half-life as compared to ADM
- stimulatory effect in vitro compared with wild type ADM [6]: lower than that of the wild type ADM

Substance: IMD: wild type, unmodified intermedin peptide (VGCVLGTCQVQNLSHRLWQLMGPAGRQDSAPVDPSSPHSY; ends and bridges not checked; cysteine pairing not given here) [reference compound]
- duration of hypotensive effect in vivo (SHR rats [1]; unmodified IMD 100 nmoles/kg BW): less than 1 hr

Reference: patent US11666633B2, “Long-acting peptide analogs” (The Board of Trustees of the Leland Stanford Junior …, priority 2011, dated 2023)
